Measured values published in US11090313B2, “Methods for inhibiting muscle atrophy” (UNIVERSITY OF IOWA RESEARCH FOUNDATION, priority 2010, dated 2021).
“Also recorded” adds a separate entry of the source.

Columns and labels:
Format in all cases: in vivo, mouse
[1] = test system: C57BL/6 mice; experiment: Fasting-induced muscle atrophy in mice (i.p. dosing, 24 h fast); conditions: for skeletal muscle weight in fasted mice (fasting-induced muscle atrophy) / fasting blood glucose: i.p. at 0 and 12 h of 24 h fast; for skeletal muscle weight in fasted mice (fasting-induced muscle atrophy): vs vehicle, mg/kg: ursolic acid 200, oleanolic acid 200, metformin 250, tomatidine 50, allantoin 2, tacrine 4, ungerine 2, hippeastrine 2, conessine 2; for fasting blood glucose: mice, mg/kg: metformin 250, ursolic acid 200, hippeastrine 2, conessine 2
Method: The mice were then fasted, and after 12 hours of fasting, the mice received a second dose of the compound or vehicle. After 24 hours of fasting, the blood glucose was measured and muscles were harvested. The data shown in FIGS. 6C-6H are means±SEM from ≤16 mice per condition. […] The effects of metformin and ursolic acid on fasting-induced muscle atrophy were also examined, i.e. the effect of 24 h fast (relative to ad lib feeding) on wet weight of lower hindlimb skeletal muscle (bilateral tibialis anterior (“TA” muscle), gastrocnemius, and soleus; see FIGS. 6E-6G). […] In FIGS. 6E-6H, each data point represents one mouse and the horizontal bars denote the means. In FIGS. 6C-6H, P-values were determined using unpaired t-tests.
Mice were then fasted, and after 12 hours of fasting, mice received a second dose of ursolic acid, oleanolic acid, or vehicle. After 24 hours of fasting, lower hindlimb skeletal muscles and liver were harvested and weighed.
To test this, food was withdrawn from mice, and then vehicle, ursolic acid (200 mg/kg) or tomatidine (50 mg/kg) were administered by i.p. injection. Twelve hours later, mice received another i.p. injection of vehicle or the same dose of ursolic acid or tomatidine. Twelve hours later, skeletal muscles were harvested and weighed. […] We next used the same protocol to compare the effects of vehicle (corn oil) and tomatidine (5, 15 and 50 mg/kg).

[2] = test system: mice; experiment: Immobilization-induced skeletal muscle atrophy model (stapled tibialis anterior); conditions: for immobilization-induced muscle atrophy (weights of immobile vs mobile TA): 2 days before and 6 days after immobilization, ursolic acid and betulinic acid varying doses, naringenin 200 mg/kg, tomatidine 5-200 mg/kg
Method: To test this, a mouse model of immobilization-induced skeletal muscle atrophy was used: mice were administered vehicle (corn oil) or varying doses of ursolic acid (positive control) or betulinic acid via intraperitoneal injection twice a day for two days. One tibialis anterior (TA) muscle was immobilized with a surgical staple, leaving the contralateral mobile TA as an intra-subject control. The vehicle or the same dose of ursolic acid or betulinic acid was continuously administered via i.p. injection twice daily for six days before comparing weights of the immobile and mobile TAs.
To test this, mice were administered vehicle (corn oil), ursolic acid (200 mg/kg), naringenin (200 mg/kg), or the combination of ursolic acid and naringenin (each at 200 mg/kg) via i.p injection twice a day for two days. One tibialis anterior (TA) muscle was immobilized with a surgical staple, leaving the contralateral mobile TA as an intrasubject control. Vehicle or the same doses of ursolic acid and/or naringenin was continuously administered via i.p. injection twice daily for six days before comparing weights of the immobile and mobile TAs.
To test this, mice were administered vehicle (corn oil) or tomatidine (50, 100 or 200 mg/kg) via i.p injection twice a day for two days. One tibialis anterior (TA) muscle was immobilized with a surgical staple, leaving the contralateral mobile TA as an intrasubject control. Vehicle or the same doses of tomatidine was administered via i.p. injection twice daily for six days before comparing weights of the immobile and mobile TAs. […] The same protocol was used to compare the effects of vehicle (corn oil) and tomatidine (5, 15 or 50 mg/kg) on immobilization-induced muscle atrophy.

[3] = test system: mice; experiment: High fat diet with ursolic acid and/or naringenin; conditions: HFD with ursolic acid 0.15% and/or naringenin 0.5% or 1.5%, 5 weeks
Method: To determine this, weight-matched mice were provided ad libitum access to standard (Harlan Teklad formula 7013), high fat diet (HFD; Harlan Teklad formula TD93075), or HFD containing varying concentrations of ursolic acid (0.15%) and/or naringenin (0.5% or 1.5%). After the mice consumed these diets for 5 weeks, fasting blood glucose, total body weight, fat mass, liver weight, grip strength, and skeletal muscle weight was measured.

Row | Structure (SMILES) | skeletal muscle weight in fasted mice (fasting-induced muscle atrophy) [1] | fasting blood glucose [1] | also measured
1 | NC(=O)NC1NC(=O)NC1=O (stereo not drawn) [allantoin] | increased muscle weight in fasted mice; also recorded: reduce fasting-induced muscle atrophy | – | –
2 | C[C@H]1[C@H]2CC[C@H]3[C@@H]4CC=C5C[C@@H](N(C)C)CC[C@]5(C)[C@H]4CC[C@]23CN1C [conessine] | increased muscle weight in fasted mice; also recorded: reduce fasting-induced muscle atrophy | reduce fasting blood glucose | –
3 | CN1CCC2=C[C@@H](O)[C@@H]3OC(=O)c4cc5c(cc4[C@@H]3[C@H]21)OCO5 [hippeastrine] | increased muscle weight in fasted mice; also recorded: reduce fasting-induced muscle atrophy | reduce fasting blood glucose | –
4 | CN(C)C(=N)N=C(N)N [metformin, reference compound] | did not alter muscle weight; also recorded: do not reduce skeletal muscle atrophy | significantly reduced fasting blood glucose | –
5 | O=C1CC(c2ccc(O)cc2)Oc2cc(O)cc(O)c21 (stereo not drawn) [naringenin] | – | – | immobilization-induced muscle atrophy (weights of immobile vs mobile TA) ([2]; i.p. twice daily): reduced muscle atrophy; also recorded: reduces immobilization-induced skeletal muscle atrophy; fasting blood glucose in high fat fed mice [3]: partially prevented
6 | CC1(C)CC[C@]2(C(=O)O)CC[C@]3(C)C(=CC[C@@H]4[C@@]5(C)CC[C@H](O)C(C)(C)[C@@H]5CC[C@]43C)[C@@H]2C1 [oleanolic acid, reference compound] | do not reduce skeletal muscle atrophy | – | –
7 | Nc1c2c(nc3ccccc13)CCCC2 [tacrine, reference compound] | increased muscle weight in fasted mice; also recorded: reduce fasting-induced muscle atrophy | – | –
8 | C[C@H]1CC[C@]2(NC1)O[C@H]1C[C@H]3[C@@H]4CC[C@H]5C[C@@H](O)CC[C@]5(C)[C@H]4CC[C@]3(C)[C@H]1[C@@H]2C [tomatidine] | increased skeletal muscle; also recorded: increased muscle weight in fasted mice; also recorded: reduces fasting-induced muscle atrophy | – | dose of maximal effect on fasting-induced muscle atrophy ([1]; tomatidine 5, 15 and 50 mg/kg i.p. twice, 24 h fast): 50 mg/kg; dose of maximal inhibition of immobilization-induced muscle atrophy ([2]; i.p. twice daily): 50 mg/kg; potency relative to ursolic acid in immobilization-induced muscle atrophy ([2]; i.p. twice daily): more potent than ursolic acid; immobilization-induced muscle atrophy (weights of immobile vs mobile TA) ([2]; i.p. twice daily): reduced muscle atrophy; also recorded: reduces immobilization-induced muscle atrophy; EC50, reduction of immobilization-induced muscle atrophy ([2]; tomatidine 5, 15 or 50 mg/kg i.p. twice daily): < 5 mg/kg
9 | CO[C@@H]1C=C2CCN(C)[C@@H]2[C@H]2c3cc4c(cc3C(=O)O[C@H]21)OCO4 [ungerine] | increased muscle weight in fasted mice; also recorded: reduce fasting-induced muscle atrophy | – | –
